These results are taken from the OPERA property sets (Mansouri et al. 2018).

`CC(C)(C)c1cc(C(O)CCC2CCNCC2)c2ccccc2n1` (configuration not stated) yielded a logP of 3.63. For `CC(C)NCC(O)COc1cccc2c1N(C(=O)c1cccnc1)CCC2` (configuration not stated), the logP was 1.63. For the compound `C=CCN1CCCC1CNC(=O)c1cc(S(N)(=O)=O)cc(OC)c1OC` (configuration not stated), the logP worked out at 1.47. Compound `CC(C)(C)NCC(O)COc1ccccc1C#N` (configuration not stated) registered a log partition coefficient (logP) of 1.6. For `CN1CCN(CCCN2c3ccccc3Sc3ccccc32)CC1`, the lipophilicity (logP) was 4. With `CC(=O)Oc1c(C)cc(OCC(O)CNC(C)C)c(C)c1C` (configuration not stated) the figure was 2.66; with `O=C(NCC1CCCCN1)c1cc(OCC(F)(F)F)ccc1OCC(F)(F)F` (configuration not stated), 3.78. The same measure for `C=CCN1CCCC1CNC(=O)c1cc2nn[nH]c2cc1OC` (configuration not stated): 1.79. The compound `CCN1CCCC1CNC(=O)c1cc(S(=O)(=O)CC)c(N)cc1OC` (configuration not stated) returned a logP of 1.1.

`CC(C)NCCCC1(C(N)=O)c2ccccc2-c2ccccc21` gave a logP of 3.11.

As to `CNC(=O)Nc1c(OCCN2CCCC2)c(OC)c2occc2c1OC`, the lipophilicity (logP) is 1.38.

Consider `CCN1CCCC1CNC(=O)c1cc(S(=O)(=O)CC)ccc1OC` (configuration not stated), for which the log partition coefficient (logP) stood at 1.06.
